Patent US6949553B2, “Aliphatic compounds, their synthesis method, and utilization of the same” (Maruha Corporation, priority 2001, dated 2005)
Like-named read-outs stand apart in the source and are kept apart here.

Assays:
platelets [1] = assay: In vitro platelet aggregation by various inducers, rabbit platelets; type: cell-based; conditions: for IC50: Oryctolagus cuniculus, Platelet, rabbit platelets, read-out: 50% inhibition point, IC50, for in vitro platelet aggregation
Source text: (§1) Next, the suppression of platelet aggregation by the compounds of the present invention was studied in the same manner as described above with the use of not only collagen, but also arachidonic acid, ADP, thrombin, serotonin, epinephrine and U46619 (pseudo-thromboxane A2 substance) as inducers.
(§2) As platelets, platelets prepared from rats and guinea pigs as well as rabbits were also used.
(§3) Collagen and ADP were purchased from MCM, and used in accordance with the method of preparation described in the manuals attached to the purchased products. Serotonin, epinephrine and thrombin were purchased from Sigma, and used as solutions in physiological saline for injection (Otsuka Pharmaceutical Factory). Arachidonic acid was purchased from Cayman, and dispersed in physiological saline for injection (Otsuka Pharmaceutical Factory) with the use of an immersion type ultrasonic oscillator (US150, NIPPON SEIKI, tip end diameter ca. 3.5 mm). U46619 (pseudo-thromboxane substance) was purchased from FUNAKOSHI, and dissolved in physiological saline for injection (Otsuka Pharmaceutical Factory) when used.
(§4) Collagen (0.1 to 1 μg/ml), arachidonic acid (1 mM), ADP (1 μM), thrombin (1 U/ml), serotonin (100 μM), epinephrine (100 to 200 μM), and U46619 (3 μM) were used.
(§5) Indomethacin was used as a positive control for measuring the suppression of platelet aggregation induced by collagen.

platelets [2] = assay: In vitro platelet aggregation by various inducers, rat platelets; type: cell-based; conditions: Rattus norvegicus
Source text: as §1, §2, §3, §4, §5

human platelets = assay: Human in vitro platelet aggregation; type: cell-based; conditions: read-out: 50% inhibition point, IC50, against human in vitro platelet aggregation
Experimental: From each of the large brachial veins of human volunteers, 10 ml of blood per person was drawn using an 18G syringe needle. The blood was gently dropped into a 15 ml Falcon tube containing 1 ml of 3.8% sodium citrate (Citral, Yamanouchi Pharmaceutical). A stopper for the tube was closed, and slowly inverted for mixing. Then, the blood was centrifuged at 900 rpm for 10 minutes at room temperature to separate the supernatant (platelet rich fraction, platelet rich plasma, PRP). The residue was further centrifuged for 15 minutes at 2,500 rpm to obtain the supernatant (platelet poor fraction, platelet poor plasma, PPP). The platelet density of PRP was measured with a blood cell counter (Sysmex), and diluted with PPP to adjust the platelet density to 300,000 platelets/μl.
Preparation of aggregation inducers was performed in the same manner as described earlier.
For each experiment, the doses of the inducers were so set as to obtain best evaluation of the action of the study substance. That is, the concentration of each inducer at which aggregation would clearly develop in the presence of a negative control (physiological saline) but would not excessive was set for each experiment.
If aggregation is induced by high concentration ADP or high concentration epinephrine, on the other hand, primary aggregation takes place, and then secondary aggregation proceeds again, under the action, as a trigger, of alpha granules (PDGF, serotonin, ADP, etc.) liberated from activated platelets. In the present study, the effect of the study substance on secondary aggregation due to ADP or epinephrine was also investigated.
Serotonin, when used alone, minimally causes platelet aggregation. Thus, a combination of serotonin and collagen, or a combination of serotonin and ADP was used as the inducer. […] For example, if serotonin used alone induced aggregation at a dose of 1 mM, but induced little aggregation at a dose of 0.5 mM, and if ADP alone induced aggregation at a dose of 0.25 mM, but induced no aggregation at a dose of 0.11 mM, then the doses, 0.25 mM serotonin+0.05 mM ADP, were set.
Compound 2 was used as the study substance, and the preparation of the inducers was performed in the same manner as described earlier.
The measurement of the transmittance was carried out in the same manner as described earlier.

platelets [3] = assay: Ex vivo platelet aggregation after oral administration; type: in vivo, rat; conditions: 10, 1 or 0.1 mg/kg oral single dose, rats, blood 2 hours after administration, collagen 2 to 4 μg/ml
Experimental: Compound 2 in a dose of 10, 1 or 0.1 mg/kg was orally administered, as a single dose, to rats with the use of a probe needle. A solvent (physiological saline) was administered as a control.
The blood was withdrawn 2 hours after administration, and platelets were prepared from the blood. Platelet aggregation was induced by 2 to 4 μg/ml of collagen using the platelets. The preparation of platelets and the measurement of the aggregation rate were performed in the same manner as in Test Example 1.

[4] = tested on: vascular smooth muscle cells; assay: Synthetic type vascular smooth muscle cell proliferation (PDGF, BrdU assay); type: cell-based, rat; conditions: 0.3 to 3 μM with PDGF 50 ng/ml, 24 hours
Experimental: The effect of the study substance on vascular smooth muscle cell proliferation was studied.
Thus, the effect of Compound 2 on the cell proliferation of vascular smooth muscle cells was measured in the following manner:
The rat carotid arterial tunica intima was rubbed by ballooning, and vascular smooth muscle cells were prepared by explant culture. Two weeks later, these cells were cultured in a DMEM culture medium (Gibco) containing 10% fetal bovine serum. The cultures were subcultured several times for stabilization, and then planted at a cell density of 5×10^3 cells/cm^2 for use in experiments. Compound 2 in combination with 50 ng/ml of the growth factor PDGF (Sigma) was added to the above planted cells and, 24 hours later, the cell density was measured by BrdU assay (Science '82, 218, p. 474, Cytometry '85, 6, p. 584). The cell density in the absence of the drug was measured as a control.
Relative smooth muscle cell count (%)=[cell count in the experimental group]/[cell count in the control]×100.

Work on CC/C=C\C/C=C\C/C=C\C/C=C\C/C=C\C/C=C\CCC(=O)NCCC1CCCN1C (racemic) [Compound 2, (4Z,7Z,10Z,13Z,16Z,19Z)-N-[2-(1-methylpyrrolidin-2-yl)ethyl]docosahexaenoamide] yielded an IC50 (platelets [1]; inducer ADP (1 μM)) of over 100 µM, an IC50 (platelets [1]; inducer U46619 (3 μM)) of 50 ± 10 µM and an IC50 (platelets [1]; inducer arachidonic acid (1 mM)) of over 100 µM. The IC50 (platelets [1]; inducer collagen (0.1 to 1 μg/ml)) was 2.1 ± 0.8 µM, the “inhibition of platelet aggregation induced by arachidonic acid, ADP and thrombin (in words)” value (platelets [1]; platelets from the rabbit, the rat or the guinea pig) was “either did not inhibit platelet aggregation, or even when it inhibited platelet aggregation, its degree of inhibition was very low” and the IC50 (platelets [2]; read-out: 50% aggregation inhibition point, collagen-induced aggregation, rat platelets) was about 11 µM. The IC50 (platelets [2]; read-out: 50% inhibition point, IC50, for in vitro platelet aggregation, inducer ADP (1 μM), rat platelets) was over 100 µM, the IC50 (platelets [2]; read-out: 50% inhibition point, IC50, for in vitro platelet aggregation, inducer collagen (0.1 to 1 μg/ml), rat platelets) was 11 ± 7 µM and the IC50 (human platelets; inducer ADP (0.5˜1) μM, primary aggregation) was 30 µM. It also gave an IC50 (human platelets; inducer ADP (1˜2.5) μM, secondary aggregation) of 0.57 µM, an IC50 (human platelets; inducer Arachidonic acid (1˜2) μM) of 80 µM and an IC50 (human platelets; inducer Collagen (0.075˜0.25) μg/ml) of 13 µM. It also gave an IC50 (human platelets; inducer Epinephrine 1 μM, primary aggregation) of 33 µM, an IC50 (human platelets; inducer Epinephrine (1˜3) μM, secondary aggregation) of 2.7 µM and an IC50 (human platelets; inducer Serotonin + Collagen, (0.25˜0.5) μM + (0.05˜0.2) μg/ml) of 15 µM. For the same compound, the IC50 (human platelets; inducer Thrombin (0.2˜0.25) U/ml) was 57 µM, the IC50 (human platelets; inducer U46619 (pseudo-thromboxane A2) (5˜10) μM) was 53 µM and the “ex vivo platelet aggregation after oral administration (in words)” value (platelets [3]) was “potently suppressed”. For the same compound, the “vascular smooth muscle cell proliferation (in words)” value [4] was “suppress vascular smooth muscle cell proliferation concentration-dependently”.
